Results reported in patent EP4230621A1, “SUBSTITUTED N-BENZOIC ACID URACILS, THEIR SALTS AND USE OF SAID COMPOUNDS AS HERBICIDAL AGENTS” (Bayer AG, priority 2022, dated 2023).

What was measured:
Assay type in all cases: in vivo
[1] = system: Alopecurus myosuroides; assay: Post-emergence herbicidal action against ALOMY (greenhouse pot test); settings: visual rating after ca. 3 weeks vs untreated controls (100% = plants dead, 0% = like controls)
Text: (§1) Die folgenden Abkürzungen werden für die in den folgenden Tabellen aufgeführten Kultur- und Schadpflanzen verwendet: ABUTH: Abutilon theophrasti ALOMY: Alopecurus myosuroides AMARE: Amaranthus retroflexus BRSNS: Brassica napus DIGSA: Digitaria sanguinalis ECHCG: Echinochloa crus-galli GLXMA: Glycine max KCHSC: Kochia scoparia LOLRI: Lolium rigidum MATIN: Matricaria inodora ORYZA: Oryza sativa PHPBU: Pharbitis purpurea POLCO: Polygonum convolvulus SETVI: Setaria viridis VERPE: Veronica persica VIOTR: Viola tricolor TRZAS: Triticum aestivum ZEAMX: Zea mays
(§2) Samen von mono- bzw. dikotylen Unkrautpflanzen wurden in Kunststoff- oder Holzfasertöpfen in sandigem Lehmboden ausgelegt, mit Erde abgedeckt und im Gewächshaus unter kontrollierten Wachstumsbedingungen angezogen. 2 bis 3 Wochen nach der Aussaat wurden die Versuchspflanzen im Einblattstadium behandelt. Die in Form von benetzbaren Pulvern (WP) oder als Emulsionskonzentrate (EC) formulierten erfindungsgemäßen Verbindungen wurden dann als wässrige Suspension bzw. Emulsion unter Zusatz von 0,5% Additiv mit einer Wasseraufwandmenge von umgerechnet 600 1/ha auf die grünen Pflanzenteile gesprüht. Nach ca. 3 Wochen Standzeit der Versuchspflanzen im Gewächshaus, unter optimalen Wachstumsbedingungen, wurde die Wirkung der Präparate visuell im Vergleich zu unbehandelten Kontrollen bonitiert. Beispielsweise bedeutet 100% Wirkung = Pflanzen sind abgestorben, 0% Wirkung = wie Kontrollpflanzen.
(§3) In den nachstehenden Tabellen A1 bis A11 sind die Wirkungen ausgewählter Verbindungen der allgemeinen Formel (I) gemäß der Tabelle 1 auf verschiedene Schadpflanzen und einer Aufwandmenge entsprechend 80 g/ha und niedriger, die gemäß zuvor genannter Versuchsvorschrift erhalten wurden, dargestellt. Tabelle A1a: Nachauflaufwirkung bei 5 g/ha gegen ABUTH in %

[2] = system: Viola tricolor; assay: Post-emergence herbicidal action against VIOTR (greenhouse pot test)
Text: as §1, §2, §3

[3] = system: Zea mays; assay: Post-emergence action on crop plants, ZEAMX (greenhouse pot test); settings: 5 g/ha, crop plant
Text: as §1
as §2, with “Kulturpflanzen” for “Unkrautpflanzen”
(§4) In den nachstehenden Tabellen B1 bis B3 sind die Wirkungen ausgewählter Verbindungen der allgemeinen Formel (I) gemäß der Tabelle 1 auf verschiedene Kulturpflanzen und einer Aufwandmenge entsprechend 20 g/ha und niedriger, die gemäß zuvor genannter Versuchsvorschrift erhalten wurden, dargestellt. Tabelle B1a: Nachauflaufwirkung bei 5 g/ha gegen ZEAMX in %

[4] = system: Digitaria sanguinalis; assay: Post-emergence herbicidal action against DIGSA (greenhouse pot test); settings: visual rating after ca. 3 weeks vs untreated controls (100% = plants dead, 0% = like controls)
Text: as §1, §2, §3

[5] = system: Matricaria inodora; assay: Post-emergence herbicidal action against MATIN (greenhouse pot test); settings: for Nachauflaufwirkung gegen MATIN: visual rating after ca. 3 weeks vs untreated controls (100% = plants dead, 0% = like controls); for Nachauflaufwirkung gegen MATIN in %: 80 g/ha
Text: as §1, §2, §3

[6] = system: Oryza sativa; assay: Post-emergence action on crop plants, ORYZA (greenhouse pot test); settings: 5 g/ha
Text: as §1
as §2, with “Kulturpflanzen” for “Unkrautpflanzen”
as §4

[7] = system: Triticum aestivum; assay: Post-emergence action on crop plants, TRZAS (greenhouse pot test); settings: crop plant
Text: as §1
as §2, with “Kulturpflanzen” for “Unkrautpflanzen”
as §4

[8] = system: Abutilon theophrasti; assay: Post-emergence herbicidal action against ABUTH (greenhouse pot test); settings: visual rating after ca. 3 weeks vs untreated controls (100% = plants dead, 0% = like controls)
Text: as §1, §2, §3

[9] = system: Setaria viridis; assay: Post-emergence herbicidal action against SETVI (greenhouse pot test)
Text: as §1, §2, §3

[10] = system: Lolium rigidum; assay: Post-emergence herbicidal action against LOLRI (greenhouse pot test); settings: visual rating after ca. 3 weeks vs untreated controls (100% = plants dead, 0% = like controls)
Text: as §1, §2, §3

[11] = system: Pharbitis purpurea; assay: Post-emergence herbicidal action against PHBPU (greenhouse pot test)
Text: as §1, §2, §3

[12] = system: Veronica persica; assay: Post-emergence herbicidal action against VERPE (greenhouse pot test)
Text: as §1, §2, §3

[13] = system: Polygonum convolvulus; assay: Post-emergence herbicidal action against POLCO (greenhouse pot test)
Text: as §1, §2, §3

[14] = system: Amaranthus retroflexus; assay: Post-emergence herbicidal action against AMARE (greenhouse pot test); settings: visual rating after ca. 3 weeks vs untreated controls (100% = plants dead, 0% = like controls)
Text: as §1, §2, §3

Compound	Nachauflaufwirkung gegen ALOMY ([1]; 20 g/ha)	Nachauflaufwirkung gegen ALOMY ([1]; 80 g/ha)	Nachauflaufwirkung gegen VIOTR in % ([2]; 5 g/ha)	Nachauflaufwirkung gegen VIOTR in % ([2]; 20 g/ha)	Nachauflaufwirkung gegen VIOTR in % ([2]; 80 g/ha)	Nachauflaufwirkung gegen DIGSA ([4]; 5 g/ha)	Nachauflaufwirkung gegen DIGSA ([4]; 20 g/ha)	Nachauflaufwirkung gegen DIGSA ([4]; 80 g/ha)	Nachauflaufwirkung gegen MATIN ([5]; 5 g/ha)	Nachauflaufwirkung gegen MATIN ([5]; 20 g/ha)	Nachauflaufwirkung gegen MATIN in % [5]	Nachauflaufwirkung gegen TRZAS in % ([7]; 5 g/ha)	Nachauflaufwirkung gegen ABUTH ([8]; 5 g/ha)	Nachauflaufwirkung gegen ABUTH ([8]; 20 g/ha)	Nachauflaufwirkung gegen ABUTH ([8]; 80 g/ha)	Nachauflaufwirkung gegen SETVI in % ([9]; 5 g/ha)	Nachauflaufwirkung gegen SETVI in % ([9]; 20 g/ha)	Nachauflaufwirkung gegen LOLRI ([10]; 80 g/ha)	Nachauflaufwirkung gegen PHBPU in % ([11]; 5 g/ha)	Nachauflaufwirkung gegen PHBPU in % ([11]; 20 g/ha)	also measured
COCCOC(=O)C(C)(C)OC(=O)c1cc(-n2c(=O)cc(C(F)(F)F)n(C)c2=O)c(F)cc1Cl [I.1-1]	100%	100%	100%	100%	100%	100%	100%	100%	100%	100%	100%	10%	100%	100%	100%	100%	100%	100%	80%	100%	Nachauflaufwirkung gegen ZEAMX in % [3]: 10%; Nachauflaufwirkung gegen ORYZA in % [6]: 20%; Nachauflaufwirkung gegen SETVI in % ([9]; 80 g/ha): 100%; Nachauflaufwirkung gegen LOLRI ([10]; 20 g/ha): 100%; Nachauflaufwirkung gegen PHBPU in % ([11]; 80 g/ha): 100%; Nachauflaufwirkung gegen VERPE in % ([12]; 5 g/ha): 100%; Nachauflaufwirkung gegen VERPE in % ([12]; 20 g/ha): 100%; Nachauflaufwirkung gegen VERPE in % ([12]; 80 g/ha): 100%; Nachauflaufwirkung gegen POLCO in % ([13]; 5 g/ha): 100%; Nachauflaufwirkung gegen POLCO in % ([13]; 20 g/ha): 100%; Nachauflaufwirkung gegen POLCO in % ([13]; 80 g/ha): 100%; Nachauflaufwirkung gegen AMARE ([14]; 5 g/ha): 100%; Nachauflaufwirkung gegen AMARE ([14]; 20 g/ha): 100%; Nachauflaufwirkung gegen AMARE ([14]; 80 g/ha): 100%
Cn1c(C(F)(F)F)cc(=O)n(-c2cc(C(=O)OC(C)(C)C(=O)OCC#N)c(Cl)cc2F)c1=O [I.1-176, 1-(Cyanmethoxy)-2-methyl-1-oxopropan-2-yl-2-chlor-4-fluor-5-[3-methyl-2,6-dioxo-4-(trifluormethyl)-3,6-dihydropyrimidin-1(2H)-yl]benzoat]	80%	100%	100%	100%	100%	100%	100%	100%	100%	100%	100%	10%	100%	100%	100%	100%	100%	90%	100%	100%	Nachauflaufwirkung gegen TRZAS in % ([7]; 20 g/ha): 10%; Nachauflaufwirkung gegen SETVI in % ([9]; 80 g/ha (dose column; title A9c prints 20 g/ha)): 100%; Nachauflaufwirkung gegen PHBPU in % ([11]; 80 g/ha): 100%; Nachauflaufwirkung gegen VERPE in % ([12]; 5 g/ha): 100%; Nachauflaufwirkung gegen VERPE in % ([12]; 20 g/ha): 100%; Nachauflaufwirkung gegen VERPE in % ([12]; 80 g/ha): 100%; Nachauflaufwirkung gegen POLCO in % ([13]; 5 g/ha): 100%; Nachauflaufwirkung gegen POLCO in % ([13]; 20 g/ha): 100%; Nachauflaufwirkung gegen POLCO in % ([13]; 80 g/ha): 100%; Nachauflaufwirkung gegen AMARE ([14]; 5 g/ha): 100%; Nachauflaufwirkung gegen AMARE ([14]; 20 g/ha): 100%; Nachauflaufwirkung gegen AMARE ([14]; 80 g/ha): 100%
CC(C)=NOC(=O)C(C)(C)OC(=O)c1cc(-n2c(=O)cc(C(F)(F)F)n(C)c2=O)c(F)cc1Cl [I.1-476]	100%	100%	100%	100%	100%	100%	100%	100%	100%	100%	100%	10%	100%	100%	100%	100%	100%	100%	100%	100%	Nachauflaufwirkung gegen ZEAMX in % [3]: 20%; Nachauflaufwirkung gegen TRZAS in % ([7]; 20 g/ha): 10%; Nachauflaufwirkung gegen SETVI in % ([9]; 80 g/ha): 100%; Nachauflaufwirkung gegen PHBPU in % ([11]; 80 g/ha): 100%; Nachauflaufwirkung gegen VERPE in % ([12]; 5 g/ha): 100%; Nachauflaufwirkung gegen VERPE in % ([12]; 20 g/ha): 100%; Nachauflaufwirkung gegen VERPE in % ([12]; 80 g/ha): 100%; Nachauflaufwirkung gegen POLCO in % ([13]; 5 g/ha): 100%; Nachauflaufwirkung gegen POLCO in % ([13]; 20 g/ha): 100%; Nachauflaufwirkung gegen POLCO in % ([13]; 80 g/ha): 100%; Nachauflaufwirkung gegen AMARE ([14]; 5 g/ha): 100%; Nachauflaufwirkung gegen AMARE ([14]; 20 g/ha): 100%; Nachauflaufwirkung gegen AMARE ([14]; 80 g/ha): 100%
